Data: article PMC9530166, “Allosteric regulation of glycogen breakdown by the second messenger cyclic di-GMP” (Nature Communications, 2022)

Columns and labels:
BldD = molecular target: BldD; parameters: method as in PMID 25171413, PMID 31810759; settings: cited from earlier work
GlgX = GlgX (Streptomyces venezuelae, UniProt F2RAW5); assay: Fluorescence polarization (FP) binding, wild-type GlgX; settings: summary value of FP (Fig. 5c) and MST (Supplementary Fig. 8); read-out: affinity of GlgX for c-di-GMP
Description: Fig. 5 Structure of the S. venezuelae GlgX-c-di-GMP complex. a Ribbon diagram of the S. venezuelae GlgX-c-di-GMP complex with one GlgX subunit colored cyan and the other salmon. Shown as sticks are the c-di-GMP molecules bound at each end of the antiparallel dimer. […] There was clear density for each c-di-GMP molecule. b Close up of the GlgX-c-di-GMP binding interaction. Key residues mediating contacts to the c-di-GMP are shown as sticks and labeled. Hydrogen bonds from GlgX residues that specify binding to the guanine are indicated by yellow dashed lines. c Fluorescence polarization (FP) binding isotherm showing interaction of GlgX, GlgXE47A-R49A and GlgXR438A-R579A for F-c-di-GMP in red, green and blue respectively. Also shown is the binding isotherm for GlgX binding to F-c-di-AMP in black. […] The y-axis and x-axis are millipolarization (mP) units and GlgX concentration (μM), respectively. Shown are representative binding curves for each. The experiments were performed in technical triplicates and the error between measurements reported. Error bars represent SD of the measurements. Source data are provided in the Source data file.
Thus, we used this F-tagged c-di-GMP in fluorescence polarization (FP) studies to quantify the interaction between GlgX and c-di-GMP. […] To ensure that the presence of the fluorescent tag was not impacting the GlgX interaction with c-di-GMP we used microscale thermophoresis (MST) to quantify c-di-GMP binding to GlgX. […] But to further probe the structural model we created GlgXE47A-R49A and GlgXR438A-R579A mutants and performed FP studies with these proteins.
To measure c-di-GMP binding to GlgX and GlgX mutants, 2′-O-(6-[Fluoresceinyl]aminohexylcarbamoyl)-cyclic diguanosine monophosphate (2′-Fluo-AHC-c-di-GMP) (BioLog), was used as a fluoresceinated reporter ligand. This molecule is conjugated via a nine atom spacer to one of the c-di-GMP 2′ hydroxyl groups. […] 2′-O-(6-[Fluoresceinyl]aminohexylcarbamoyl)-cyclic diadenosine monophosphate (2′-Fluo-AHC-c-di-AMP) (BioLog) was also used in binding studies to assess specificity of GlgX for c-di-GMP. […]

His6-GlgX = assay: Bicinchoninic acid (BCA) reducing-end enzyme assay, wild-type GlgX; type: biochemical, Streptomyces venezuelae; settings: for stimulation of GlgX hydrolysis of substrate: 1 µM His6-GlgX, 50 µM c-di-GMP
Description: Glycogen debranching enzymes hydrolyze α-(1→6)-linked glucan branches, producing malto-oligosaccharides with reducing ends[7]. The bicinchoninic acid (BCA) assay allows accurate photometric determination of reducing ends from oligosaccharides and is based on the reduction of Cu^2+ to Cu^+. A purple copper bicinchoninate complex with an absorbance maximum at 562 nm forms from Cu^+ and bicinchoninate. […] In addition, we tested the effect of c-di-GMP on GlgX activity by using polysaccharides with different degrees of α-(1→6)-linked glucans as a substrate (Fig. 2b). While glycogen contains α-(1→6)-linked glucan branches every 8–10 residue, amylose is essentially an unbranched chain of α−1,4-linked glucose subunits. Amylopectin is composed of α−1,4-linked glucose units with α-(1→6)-linkages at intervals of ∼20 units. Pullulan is a polysaccharide polymer consisting of maltotriose units in which the three glucose units are connected by α−1,4-glycosidic bonds. Consecutive maltotriose units are linked by a α−1,6-glycosidic bond.
Fig. 2 c-di-GMP stimulates glycogen breakdown activity of GlgX in vitro. a Bicinchoninic acid (BCA) in vitro enzyme assay. The purple copper bicinchoninate complex indicating GlgX-mediated generation of reducing ends in glycogen was quantified by photometric measurements at 562 nm. A562 values were converted into reducing ends [µM glucose equivalents] based on D-glucose as a standard. Reactions contained 0.05% (w/v) glycogen from rabbit, 1 µM GlgX and increasing concentrations of c-di-GMP (0–100 µM). Source data are provided as a Source data file. b BCA assay containing 0.05% of either glycogen from rabbit, pullulan, amylopectin from maize or amylose from potato as substrates. Where appropriate, 1 µM GlgX or 50 µM c-di-GMP were added to the reaction samples. Source data are provided as a Source data file. c BCA assay as in a with or without c-di-GMP (50 µM), 0.05% glycogen from rabbit (S) and 1 µM Vnz25270, GlgX, the active site mutants GlgXD342A, GlgXE378A, GlgXD342A+E378A, or the c-di-GMP-binding mutant variant GlgXDETR49-52 as indicated. The experiment was performed three times, each time with two technical replicates. The data points represent the mean ± SD of six data points. Source data are provided as a Source data file.
Hydrolysis of carbohydrates was assessed in vitro by measuring the accumulation of reducing sugar ends using the BCA assay[42] and D-glucose as a standard for calibration (Supplementary Fig. 11). Purified enzyme was diluted to […] in 20 mM (N-2-hydroxyethylpiperazine-N′−2-ethanesulfonic acid) HEPES (pH 7.5; ionic strength, 160 mM [adjusted with NaCl]) containing 10 mM MgCl2 and […] c-di-GMP (BioLog). Samples were incubated at rt for 5 min and reactions were initiated by the addition of 0.05% of the relevant carbohydrate provided by Sigma-Aldrich: glycogen from rabbit (cat. no G8876); amylose from potato (cat. no A0512); amylopectin from maize (cat. no. 10120); and pullulan (P4516). The mixture was incubated at 37 °C in a heat block for 1 h. Next, an equal volume of BCA reagent solution (250 mM Na2CO3; 144 mM NaHCO3; 2.5 mM sodium bicinconinic acid (Sigma); 6 mM L-serine (Roth); 2.5 mM CuSO4 x 5 H2O (Roth)) was added, reactions were vortexed vigorously and incubated at 80 °C in a heat block for 30 min. Assay mixtures were then cooled to rt. 125 μl sample aliquots were transferred in duplicates to a 96 well plate and the absorbance at 562 nm was measured using a plate reader.

Sequence of GlgX (F2RAW5 entry or part of it): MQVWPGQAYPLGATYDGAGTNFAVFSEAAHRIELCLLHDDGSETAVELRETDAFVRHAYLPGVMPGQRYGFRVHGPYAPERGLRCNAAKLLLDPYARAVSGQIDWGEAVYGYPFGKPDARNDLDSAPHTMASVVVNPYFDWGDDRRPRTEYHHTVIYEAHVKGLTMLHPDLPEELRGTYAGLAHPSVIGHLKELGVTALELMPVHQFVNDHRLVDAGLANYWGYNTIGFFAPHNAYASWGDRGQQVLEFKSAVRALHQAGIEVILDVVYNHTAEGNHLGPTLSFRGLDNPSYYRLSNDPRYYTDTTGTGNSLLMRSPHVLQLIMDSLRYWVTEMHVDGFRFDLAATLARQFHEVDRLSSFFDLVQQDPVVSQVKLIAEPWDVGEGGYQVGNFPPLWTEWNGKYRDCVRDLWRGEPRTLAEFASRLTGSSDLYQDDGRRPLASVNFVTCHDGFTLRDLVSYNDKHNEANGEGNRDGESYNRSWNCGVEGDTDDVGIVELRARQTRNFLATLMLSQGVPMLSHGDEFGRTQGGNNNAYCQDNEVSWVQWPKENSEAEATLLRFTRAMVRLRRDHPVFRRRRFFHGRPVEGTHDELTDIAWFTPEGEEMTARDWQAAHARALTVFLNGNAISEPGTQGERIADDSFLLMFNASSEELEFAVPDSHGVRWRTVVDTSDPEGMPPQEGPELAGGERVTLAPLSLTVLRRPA

SMILES: Nc1nc2c(ncn2[C@@H]2O[C@@H]3CO[P@](=O)(O)O[C@H]4[C@@H](O)[C@H](n5cnc6c(=O)[nH]c(N)nc65)O[C@@H]4CO[P@](=O)(O)O[C@H]3[C@H]2O)c(=O)[nH]1 [c-di-GMP, bis-(3′−5′)-cyclic diguanosine monophosphate]
- Kd (BldD): 2.5 ± 0.6 µM
- Kd (GlgX): ~8 µM
- c-di-GMP concentration with saturating enzymatic activity (His6-GlgX; 0.05% glycogen from rabbit, 1 µM GlgX, c-di-GMP 3.125–100 µM): 50 µM
- stimulation of GlgX hydrolysis of substrate (His6-GlgX; substrate 0.05% amylopectin): stimulates
- stimulation of GlgX hydrolysis of substrate (His6-GlgX; substrate 0.05% amylose): no stimulation
- stimulation of GlgX hydrolysis of substrate (His6-GlgX; substrate 0.05% glycogen): stimulates
- stimulation of GlgX hydrolysis of substrate (His6-GlgX; substrate 0.05% pullulan): stimulates
